Test results reported in ChEMBL document CHEMBL1201862, “PubChem BioAssay data set” (2004).
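Protocol summary: plate cells (96-well), add compound at 5 concentrations, incubate 48 h, interpolate endpoints linearly. GI50: concentration for 50% inhibition of growth.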 Activity calls are given as the source filed them. Cut-off read from the data, not from the text of the source: active = GI50 up to about 1.1 µM and inactive = higher.

Key:
Test in all cases: NCI tumour cell line growth inhibition, 48 h
UACC-257 = system: UACC-257
HOP-62 = system: HOP-62
NCI-H522 = system: NCI-H522
Malme-3M = system: Malme-3M
MCF7 = system: MCF7
CAKI-1 = system: CAKI-1
SK-MEL-5 = system: SK-MEL-5
IGROV-1 = system: IGROV-1
K562 = system: K562
NCI-H23 = system: NCI-H23
OVCAR-5 = system: OVCAR-5
M14 = system: M14
EKVX = system: EKVX
ACHN = system: ACHN
HOP-92 = system: HOP-92
HCC 2998 = system: HCC 2998
OVCAR-8 = system: OVCAR-8
RPMI-8226 = system: RPMI-8226
UO-31 = system: UO-31
OVCAR-4 = system: OVCAR-4

| SMILES | GI50 (UACC-257) | GI50 (HOP-62) | GI50 (NCI-H522) | GI50 (Malme-3M) | GI50 (MCF7) | GI50 (CAKI-1) | GI50 (SK-MEL-5) | GI50 (IGROV-1) | GI50 (K562) | GI50 (NCI-H23) | GI50 (OVCAR-5) | GI50 (M14) | GI50 (EKVX) | GI50 (ACHN) | GI50 (HOP-92) | GI50 (HCC 2998) | GI50 (OVCAR-8) | GI50 (RPMI-8226) | GI50 (UO-31) | GI50 (OVCAR-4) |
| --- | --- | --- | --- | --- | --- | --- | --- | --- | --- | --- | --- | --- | --- | --- | --- | --- | --- | --- | --- | --- |
| CC1(C)CSCC(C)(C)C(=N/N)/C1=N\N | > 100 µM (inactive) | > 100 µM (inactive) | > 100 µM (inactive) | > 100 µM (inactive) | > 100 µM (inactive) | > 100 µM (inactive) | > 100 µM (inactive) | > 100 µM (inactive) | > 100 µM (inactive) | > 100 µM (inactive) | > 100 µM (inactive) | > 100 µM (inactive) | > 100 µM (inactive) | > 100 µM (inactive) | > 100 µM (inactive) | > 100 µM (inactive) | > 100 µM (inactive) | – | – | – |
| O=c1oc2ccccc2cc1-c1cn2c(n1)sc1ccccc12 | > 100 µM (inactive) | > 100 µM (inactive) | 26.1 µM (inactive) | – | 4.75 µM (inactive) | > 100 µM (inactive) | > 100 µM (inactive) | > 100 µM (inactive) | > 100 µM (inactive) | > 100 µM (inactive) | – | > 100 µM (inactive) | 2.33 µM (inactive) | > 100 µM (inactive) | > 100 µM (inactive) | > 100 µM (inactive) | 83.9 µM (inactive) | > 100 µM (inactive) | > 100 µM (inactive) | – |
| CCCCCCCCCCCCNC(=O)NCC(OCC)OCC | > 10 µM (inactive) | > 10 µM (inactive) | > 10 µM (inactive) | – | > 10 µM (inactive) | > 10 µM (inactive) | > 10 µM (inactive) | > 10 µM (inactive) | > 10 µM (inactive) | > 10 µM (inactive) | > 10 µM (inactive) | > 10 µM (inactive) | > 10 µM (inactive) | > 10 µM (inactive) | > 10 µM (inactive) | > 10 µM (inactive) | > 10 µM (inactive) | > 10 µM (inactive) | – | > 10 µM (inactive) |
| CC(C)CC1N=C(OCc2ccccc2)OC1=O (stereo unspecified) | > 100 µM (inactive) | > 100 µM (inactive) | > 100 µM (inactive) | > 100 µM (inactive) | > 100 µM (inactive) | > 100 µM (inactive) | 45.7 µM (inactive) | > 100 µM (inactive) | > 100 µM (inactive) | > 100 µM (inactive) | > 100 µM (inactive) | > 100 µM (inactive) | > 100 µM (inactive) | > 100 µM (inactive) | > 100 µM (inactive) | – | > 100 µM (inactive) | > 100 µM (inactive) | > 100 µM (inactive) | > 100 µM (inactive) |
| O=c1[nH]nc(Cc2ccc(Cl)cc2)n1/N=C/c1ccco1 | > 100 µM (inactive) | 48.6 µM (inactive) | 58.9 µM (inactive) | > 100 µM (inactive) | 3.15 µM (inactive) | > 100 µM (inactive) | – | – | > 100 µM (inactive) | 34.8 µM (inactive) | > 100 µM (inactive) | > 100 µM (inactive) | > 100 µM (inactive) | > 100 µM (inactive) | 93.8 µM (inactive) | > 100 µM (inactive) | 66.5 µM (inactive) | > 100 µM (inactive) | > 100 µM (inactive) | > 100 µM (inactive) |
| CCCC(=O)OCC1OC(n2cc(F)c(=O)[nH]c2=O)C(F)C1OC(=O)CCC (stereo unspecified) | 85.7 µM (inactive) | 4.11 µM (inactive) | > 100 µM (inactive) | 36.6 µM (inactive) | 0.6 µM (active) | 23.1 µM (inactive) | 36.8 µM (inactive) | 58.6 µM (inactive) | 56.1 µM (inactive) | 35.7 µM (inactive) | 96.6 µM (inactive) | 36.3 µM (inactive) | 50 µM (inactive) | 25.6 µM (inactive) | 17.4 µM (inactive) | – | 19.6 µM (inactive) | 9.31 µM (inactive) | 69.7 µM (inactive) | 5.61 µM (inactive) |
| NC(=O)CC(Nc1ncc2c(n1)-c1ccccc1OC2)C(=O)O (stereo unspecified) | 61.7 µM (inactive) | > 100 µM (inactive) | > 100 µM (inactive) | 92 µM (inactive) | 77.6 µM (inactive) | 43.1 µM (inactive) | > 100 µM (inactive) | 24.2 µM (inactive) | > 100 µM (inactive) | > 100 µM (inactive) | > 100 µM (inactive) | > 100 µM (inactive) | 59.6 µM (inactive) | > 100 µM (inactive) | > 100 µM (inactive) | – | > 100 µM (inactive) | 26 µM (inactive) | > 100 µM (inactive) | > 100 µM (inactive) |
| C1=N\CCN2CCN(CC/N=C\c3ccc(cc3)OCc3cccc(n3)COc3ccc/1cc3)CC2 | > 50 µM (inactive) | > 50 µM (inactive) | > 50 µM (inactive) | 26.9 µM (inactive) | > 50 µM (inactive) | – | – | > 50 µM (inactive) | > 50 µM (inactive) | > 50 µM (inactive) | > 50 µM (inactive) | > 50 µM (inactive) | > 50 µM (inactive) | > 50 µM (inactive) | 40.4 µM (inactive) | – | > 50 µM (inactive) | > 50 µM (inactive) | > 50 µM (inactive) | > 50 µM (inactive) |
| CCCNc1[nH]c(C(C)=O)c(N)c1C(=S)Nc1ccccc1 | 30.1 µM (inactive) | 42 µM (inactive) | 4.15 µM (inactive) | 28 µM (inactive) | 19.2 µM (inactive) | 46.8 µM (inactive) | 22.7 µM (inactive) | 0.507 µM (active) | 43.4 µM (inactive) | 41 µM (inactive) | 68.9 µM (inactive) | 19.4 µM (inactive) | 35.2 µM (inactive) | 40.8 µM (inactive) | 34 µM (inactive) | > 100 µM (inactive) | 27.7 µM (inactive) | – | 0.782 µM (active) | 23.1 µM (inactive) |
| C#C/C=C\CCCCCCCCCCCCCC/C=C\CCCCC#CC(O)C#CCCCC/C=C\CCCCCC/C=C/C(O)C#C (stereo unspecified) | 27 µM (inactive) | > 62.8 µM (inactive) | 5.7 µM (inactive) | 17.1 µM (inactive) | 5.62 µM (inactive) | 7.69 µM (inactive) | 5.89 µM (inactive) | 13.6 µM (inactive) | 23.8 µM (inactive) | 9.64 µM (inactive) | 26.1 µM (inactive) | 12.9 µM (inactive) | 17 µM (inactive) | 20.8 µM (inactive) | 16.4 µM (inactive) | 13.1 µM (inactive) | 23.3 µM (inactive) | – | 15.6 µM (inactive) | 6.38 µM (inactive) |
| c1ccc2c(c1)CCN2CCN1CCc2ccccc21 | > 10 µM (inactive) | > 10 µM (inactive) | > 10 µM (inactive) | – | > 10 µM (inactive) | > 10 µM (inactive) | > 10 µM (inactive) | > 10 µM (inactive) | > 10 µM (inactive) | > 10 µM (inactive) | > 10 µM (inactive) | > 10 µM (inactive) | > 10 µM (inactive) | > 10 µM (inactive) | > 10 µM (inactive) | > 10 µM (inactive) | > 10 µM (inactive) | > 10 µM (inactive) | > 10 µM (inactive) | > 10 µM (inactive) |
